Test results taken from ChEMBL document CHEMBL4251622, “Design, synthesis, and biological evaluation of polo-like kinase 1/eukaryotic elongation factor 2 kinase (PLK1/EEF2K) dual inhibitors for regulating breast cancer cells apoptosis and autophagy” (Eur J Med Chem, 2018).
Activity calls are given as the source filed them. The rule behind the calls is not given here.

How the values were obtained:
BT-483 = experiment: Cytotoxicity against human BT-483 cells after 24 hrs by MTT assay; assay type: functional, cell-based; settings: BT-483, 24 h
MCF7 = experiment: Cytotoxicity against human MCF7 cells after 24 hrs by MTT assay; assay type: functional, cell-based; settings: MCF7, 24 h
[1] = molecular target: Serine/threonine-protein kinase PLK1 (Homo sapiens, UniProt P53350); experiment: Inhibition of full length human PLK1 at 20 uM using casein as substrate after 40 mins in presence of [gamma-33P]-ATP by radiometric assay relative to control
[2] = molecular target: T1, Eukaryotic elongation factor 2 kinase (Homo sapiens) (UniProt O00418); experiment: Inhibition of GST-tagged EEF2K (unknown origin) at 20 uM using biotinylated EEF2 peptide substrate by HTRF assay relative to control
T1 sequence (whole entry): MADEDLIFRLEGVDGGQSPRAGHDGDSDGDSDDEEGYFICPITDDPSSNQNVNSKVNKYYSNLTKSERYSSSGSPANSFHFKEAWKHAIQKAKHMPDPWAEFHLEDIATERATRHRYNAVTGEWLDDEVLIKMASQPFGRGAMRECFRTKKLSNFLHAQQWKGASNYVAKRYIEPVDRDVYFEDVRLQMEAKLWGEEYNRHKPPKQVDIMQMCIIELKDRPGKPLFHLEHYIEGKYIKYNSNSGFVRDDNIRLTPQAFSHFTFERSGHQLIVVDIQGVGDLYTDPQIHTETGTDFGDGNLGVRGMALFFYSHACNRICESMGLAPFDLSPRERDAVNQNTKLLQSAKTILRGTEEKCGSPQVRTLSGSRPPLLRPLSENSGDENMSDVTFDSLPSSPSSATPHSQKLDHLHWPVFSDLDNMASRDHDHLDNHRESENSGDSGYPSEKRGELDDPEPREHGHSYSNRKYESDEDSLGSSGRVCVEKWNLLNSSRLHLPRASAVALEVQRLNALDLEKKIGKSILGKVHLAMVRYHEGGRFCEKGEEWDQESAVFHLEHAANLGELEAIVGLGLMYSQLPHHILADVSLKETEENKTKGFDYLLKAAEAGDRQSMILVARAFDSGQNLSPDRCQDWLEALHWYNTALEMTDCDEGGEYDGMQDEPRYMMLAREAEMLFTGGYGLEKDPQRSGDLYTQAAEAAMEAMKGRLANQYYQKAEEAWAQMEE

MDA-MB-468 = experiment: Cytotoxicity against human MDA-MB-468 cells after 24 hrs by MTT assay; assay type: functional, cell-based
ZR-75-1 = experiment: Cytotoxicity against human ZR-75-1 cells after 24 hrs by MTT assay; assay type: functional, cell-based
MDA-MB-231 = experiment: Cytotoxicity against human MDA-MB-231 cells after 24 hrs by MTT assay; assay type: functional, cell-based
BT-474 = experiment: Cytotoxicity against human BT474 cells after 24 hrs by MTT assay; assay type: functional, cell-based
SK-BR-3 = experiment: Cytotoxicity against human SKBR3 cells after 24 hrs by MTT assay; assay type: functional, cell-based

Chain of Serine/threonine-protein kinase PLK1 (P53350 whole entry): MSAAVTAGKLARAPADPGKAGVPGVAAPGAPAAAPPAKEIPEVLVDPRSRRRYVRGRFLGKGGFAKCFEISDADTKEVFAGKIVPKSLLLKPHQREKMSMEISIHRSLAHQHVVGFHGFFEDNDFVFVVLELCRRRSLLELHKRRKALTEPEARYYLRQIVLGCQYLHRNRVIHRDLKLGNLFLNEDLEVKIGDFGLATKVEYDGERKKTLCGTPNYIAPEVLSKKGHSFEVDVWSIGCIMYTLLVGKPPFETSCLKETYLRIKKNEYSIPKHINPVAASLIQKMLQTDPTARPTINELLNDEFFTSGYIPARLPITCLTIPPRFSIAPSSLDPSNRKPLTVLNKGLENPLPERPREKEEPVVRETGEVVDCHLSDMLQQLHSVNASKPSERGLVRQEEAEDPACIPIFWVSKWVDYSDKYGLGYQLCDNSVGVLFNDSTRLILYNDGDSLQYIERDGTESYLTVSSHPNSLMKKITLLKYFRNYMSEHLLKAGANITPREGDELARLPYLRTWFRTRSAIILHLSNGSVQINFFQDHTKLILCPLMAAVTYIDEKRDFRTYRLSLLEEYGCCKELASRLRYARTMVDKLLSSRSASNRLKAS

| inhibition [1] [%] | inhibition [2] [%] | Compound | IC50 (BT-483) [µM] | IC50 (MCF7) [µM] | Activity (MDA-MB-468) | Activity (ZR-75-1) | Activity (MDA-MB-231) | Activity (BT-474) | Activity (SK-BR-3) |
| --- | --- | --- | --- | --- | --- | --- | --- | --- | --- |
| 42.6 | 37.9 | CCNc1cc(-c2ccc(NC(=O)Nc3ccc(C)cc3)cc2C(F)(F)F)ccn1 | 27.1 | 9.47 |  |  |  |  |  |
|  |  | CC[C@@H]1C(=O)N(C)c2cnc(Nc3ccc(C(=O)NC4CCC(N5CCN(CC6CC6)CC5)CC4)cc3OC)nc2N1C(C)C (some centres not stated) |  |  | Active | Active | Active | Active | Active |
| 62.1 | 51.3 | CCNc1cc(-c2ccc(NC(=O)Nc3ccc(OC)cc3)cc2C(F)(F)F)ccn1 | 17.6 | 5.74 |  |  |  |  |  |
| 66.1 | 37.2 | CCNc1cc(-c2ccc(NC(=O)Nc3cc(C(F)(F)F)cc(C(F)(F)F)c3)cc2C(F)(F)F)ccn1 | > 30 | 5.96 |  |  |  |  |  |
| 55.8 | 41.2 | CCNc1cc(-c2ccc(NC(=O)Nc3ccc(C(F)(F)F)cc3)cc2F)ccn1 | 26.8 | 8.02 |  |  |  |  |  |
| 40.7 | 34.6 | CCNc1cc(-c2ccc(NC(=O)Nc3ccc(C(F)(F)F)cc3)cc2OC)ccn1 | 25.6 | 19.5 |  |  |  |  |  |
| 54.1 | -4.29 | CCNc1cc(-c2ccc(NC(=O)Nc3cccc4ccccc34)cc2C(F)(F)F)ccn1 | > 30 | 16.3 |  |  |  |  |  |
| 82.7 | 73.4 | CCNc1cc(-c2ccc(NC(=O)Nc3cccc(Cl)c3)cc2C)ccn1 | 16.6 | 4.18 |  |  |  |  |  |
| 71.6 | 53.6 | CCNc1cc(-c2ccc(NC(=O)Nc3ccccc3Cl)cc2C(F)(F)F)ccn1 | 20.8 | 3.68 |  |  |  |  |  |
| 35.3 |  | CCNc1cc(-c2ccc(NC(=O)Nc3cccc4ccccc34)cc2C)ccn1 | > 30 | 15.5 |  |  |  |  |  |
| 53.4 | 15.1 | O=C(Nc1ccc(C(F)(F)F)cc1)Nc1ccc(-c2ccnc(NCC3CC3)c2)c(C(F)(F)F)c1 | > 30 | 15.6 |  |  |  |  |  |
| 42.1 | 8.7 | CCNc1cc(-c2ccc(NC(=O)Nc3c(C)cccc3C)cc2C)ccn1 | > 30 | 7.92 |  |  |  |  |  |
| 54.4 |  | CCNc1cc(-c2ccc(NC(=O)Nc3c(C)cccc3C)cc2OC)ccn1 | > 30 | 9.26 |  |  |  |  |  |
| 47.5 | 35.4 | CCNc1cc(-c2ccc(NC(=O)Nc3ccc(C)cc3)cc2C)ccn1 | 22 | 9.21 |  |  |  |  |  |
| 63.8 | 27.8 | O=C(Nc1cccc(Cl)c1)Nc1ccc(-c2ccnc(NCC3CC3)c2)c(C(F)(F)F)c1 | > 30 | 17.4 |  |  |  |  |  |
| 51.3 | 33.3 | CCCNc1cc(-c2ccc(NC(=O)Nc3ccc(C(F)(F)F)cc3)cc2C(F)(F)F)ccn1 | 18.8 | 7.68 |  |  |  |  |  |
| 53.6 | 6.4 | CCNc1cc(-c2ccc(NC(=O)Nc3ccccc3Cl)cc2OC)ccn1 | > 30 | 9.94 |  |  |  |  |  |
| 31.1 | 9 | CCNc1cc(-c2ccc(NC(=O)Nc3ccc(OC)cc3)cc2OC)ccn1 | > 30 | 17.5 |  |  |  |  |  |
| 59.2 | 44 | CCNc1cc(-c2ccc(NC(=O)Nc3c(C)cccc3C)cc2C(F)(F)F)ccn1 | 22 | 6.95 |  |  |  |  |  |
| 45.8 | 33.4 | CCNc1cc(-c2ccc(NC(=O)Nc3ccc(OC)cc3)cc2C)ccn1 | 25.8 | 9.95 |  |  |  |  |  |
| 47.1 | 34.4 | CCNc1cc(-c2ccc(NC(=O)Nc3ccc(OC)cc3)cc2F)ccn1 | 19.6 | 14.1 |  |  |  |  |  |
| 46.4 | 30.6 | CCNc1cc(-c2ccc(NC(=O)Nc3cccc(Cl)c3)cc2OC)ccn1 | 25.3 | 7.46 |  |  |  |  |  |
| 49.2 | 21.7 | CCNc1cc(-c2ccc(NC(=O)Nc3ccccc3Cl)cc2C)ccn1 | > 30 | 8.35 |  |  |  |  |  |
| 72.7 | 52.5 | CCNc1cc(-c2ccc(NC(=O)Nc3cccc(Cl)c3)cc2F)ccn1 | 18.5 | 6.94 |  |  |  |  |  |
| 54.8 | 55.3 | CCNc1cc(-c2ccc(NC(=O)Nc3ccc(C(F)(F)F)cc3)cc2C)ccn1 | 19.7 | 6.87 |  |  |  |  |  |
| 82.9 | 76.3 | CCNc1cc(-c2ccc(NC(=O)Nc3ccc(C(F)(F)F)cc3)cc2C(F)(F)F)ccn1 | 16.4 | 2.39 |  |  |  |  |  |
| 63 | 38.2 | CCCNc1cc(-c2ccc(NC(=O)Nc3cccc(Cl)c3)cc2C(F)(F)F)ccn1 | 18.5 | 8.23 |  |  |  |  |  |
